Assays:
Assay in all cases: relative viability vs DMSO control (72 h) (fraction); higher = more viable cells
HS729 = system: HS729
How it was run: (§1)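 Relative viability was measured with ATPLite and expressed as percent growth, averaged across up to triplicate wells. Sarcoma cell lines had been seeded in 384-well plates to reach 80–90% confluence, dosed after 24 h, and incubated 72 h at 37 °C, 5% CO2. All data were rescaled on a scale where 1 is full and 0 is none.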

SW684 = system: SW684
How it was run: as §1

SK-LMS-1 = system: SK-LMS-1
How it was run: as §1

A204 = system: A204
How it was run: as §1

SYO-1 = system: SYO-1
How it was run: as §1

KHOS-NP = system: KHOS-NP
How it was run: as §1

SW872 = system: SW872
How it was run: as §1

SK-ES-1 = system: SK-ES-1
How it was run: as §1

G401 = system: G401
How it was run: as §1

VA-ES-BJ = system: VA-ES-BJ
How it was run: as §1

RD = system: RD
How it was run: as §1

MES-SA = system: MES-SA
How it was run: as §1

CN(C)C(=O)c1cc2cnc(Nc3ccc(N4CCNCC4)cn3)nc2n1C1CCCC1 [Ribociclib]
Settings	relative viability
A204, 0.00017 µM	1.07
A204, 0.00051 µM	1.09
A204, 0.00152 µM	1.08
A204, 0.00457 µM	1.09
A204, 0.01372 µM	1.05
A204, 0.04115 µM	1.05
A204, 0.1235 µM	0.967
A204, 0.3704 µM	0.907
A204, 1.111 µM	0.921
A204, 3.333 µM	0.795
A204, 10 µM	0.639
G401, 0.00017 µM	0.987
G401, 0.00051 µM	0.968
G401, 0.00152 µM	1.02
G401, 0.00457 µM	0.983
G401, 0.01372 µM	0.97
G401, 0.04115 µM	0.899
G401, 0.1235 µM	0.898
G401, 0.3704 µM	0.886
G401, 1.111 µM	0.846
G401, 3.333 µM	0.794
G401, 10 µM	0.774
HS729, 0.00017 µM	0.88
HS729, 0.00051 µM	0.877
HS729, 0.00152 µM	0.878
HS729, 0.00457 µM	0.893
HS729, 0.01372 µM	0.905
HS729, 0.04115 µM	0.915
HS729, 0.1235 µM	0.928
HS729, 0.3704 µM	0.875
HS729, 1.111 µM	0.89
HS729, 3.333 µM	0.87
HS729, 10 µM	0.869
KHOS-NP, 0.00017 µM	1.08
KHOS-NP, 0.00051 µM	1.07
KHOS-NP, 0.00152 µM	1.06
KHOS-NP, 0.00457 µM	1.07
KHOS-NP, 0.01372 µM	1.06
KHOS-NP, 0.04115 µM	1.07
KHOS-NP, 0.1235 µM	1.07
KHOS-NP, 0.3704 µM	1.08
KHOS-NP, 1.111 µM	1.08
KHOS-NP, 3.333 µM	1.08
KHOS-NP, 10 µM	1.03
MES-SA, 0.00017 µM	0.899
MES-SA, 0.00051 µM	0.909
MES-SA, 0.00152 µM	0.914
MES-SA, 0.00457 µM	0.908
MES-SA, 0.01372 µM	0.896
MES-SA, 0.04115 µM	0.884
MES-SA, 0.1235 µM	0.868
MES-SA, 0.3704 µM	0.853
MES-SA, 1.111 µM	0.817
MES-SA, 3.333 µM	0.6876
MES-SA, 10 µM	0.598
RD, 0.00017 µM	1.13
RD, 0.00051 µM	1.06
RD, 0.00152 µM	1.08
RD, 0.00457 µM	1.12
RD, 0.01372 µM	1.09
RD, 0.04115 µM	1.05
RD, 0.1235 µM	1.04
RD, 0.3704 µM	1.06
RD, 1.111 µM	0.995
RD, 3.333 µM	0.915
RD, 10 µM	0.87
SK-ES-1, 0.00017 µM	1.03
SK-ES-1, 0.00051 µM	1.04
SK-ES-1, 0.00152 µM	1.06
SK-ES-1, 0.00457 µM	1.02
SK-ES-1, 0.01372 µM	1.04
SK-ES-1, 0.04115 µM	0.989
SK-ES-1, 0.1235 µM	0.837
SK-ES-1, 0.3704 µM	0.761
SK-ES-1, 1.111 µM	0.659
SK-ES-1, 3.333 µM	0.466
SK-ES-1, 10 µM	0.427
SK-LMS-1, 0.00017 µM	1.05
SK-LMS-1, 0.00051 µM	1.05
SK-LMS-1, 0.00152 µM	1.12
SK-LMS-1, 0.00457 µM	1.08
SK-LMS-1, 0.01372 µM	1.09
SK-LMS-1, 0.04115 µM	1.11
SK-LMS-1, 0.1235 µM	1.06
SK-LMS-1, 0.3704 µM	1.01
SK-LMS-1, 1.111 µM	0.99
SK-LMS-1, 3.333 µM	0.952
SK-LMS-1, 10 µM	0.9041
SW684, 0.00017 µM	1.16
SW684, 0.00051 µM	1.16
SW684, 0.00152 µM	1.14
SW684, 0.00457 µM	1.15
SW684, 0.01372 µM	1.13
SW684, 0.04115 µM	1.15
SW684, 0.1235 µM	1.15
SW684, 0.3704 µM	1.14
SW684, 1.111 µM	1.17
SW684, 3.333 µM	1.1
SW684, 10 µM	1.05
SW872, 0.00017 µM	1.03
SW872, 0.00051 µM	1.01
SW872, 0.00152 µM	1.02
SW872, 0.00457 µM	1.02
SW872, 0.01372 µM	1.02
SW872, 0.04115 µM	0.996
SW872, 0.1235 µM	0.959
SW872, 0.3704 µM	0.938
SW872, 1.111 µM	0.946
SW872, 3.333 µM	0.818
SW872, 10 µM	0.713
SYO-1, 0.00017 µM	0.96
SYO-1, 0.00051 µM	0.956
SYO-1, 0.00152 µM	0.96
SYO-1, 0.00457 µM	0.937
SYO-1, 0.01372 µM	0.923
SYO-1, 0.04115 µM	0.87
SYO-1, 0.1235 µM	0.814
SYO-1, 0.3704 µM	0.772
SYO-1, 1.111 µM	0.705
SYO-1, 3.333 µM	0.598
SYO-1, 10 µM	0.523
VA-ES-BJ, 0.00017 µM	1.03
VA-ES-BJ, 0.00051 µM	1.04
VA-ES-BJ, 0.00152 µM	1.01
VA-ES-BJ, 0.00457 µM	0.995
VA-ES-BJ, 0.01372 µM	0.988
VA-ES-BJ, 0.04115 µM	0.985
VA-ES-BJ, 0.1235 µM	0.931
VA-ES-BJ, 0.3704 µM	0.869
VA-ES-BJ, 1.111 µM	0.872
VA-ES-BJ, 3.333 µM	0.712
VA-ES-BJ, 10 µM	0.597
